# From patent US20250145598A1, “ACID CERAMIDASE INHIBITORS AND USES THEREOF” (The Regents of the University of California, priority 2021, published 2025)
# Target: T1, Acid ceramidase (Homo sapiens, UniProt Q13510)
# T1 sequence (Q13510 22-395): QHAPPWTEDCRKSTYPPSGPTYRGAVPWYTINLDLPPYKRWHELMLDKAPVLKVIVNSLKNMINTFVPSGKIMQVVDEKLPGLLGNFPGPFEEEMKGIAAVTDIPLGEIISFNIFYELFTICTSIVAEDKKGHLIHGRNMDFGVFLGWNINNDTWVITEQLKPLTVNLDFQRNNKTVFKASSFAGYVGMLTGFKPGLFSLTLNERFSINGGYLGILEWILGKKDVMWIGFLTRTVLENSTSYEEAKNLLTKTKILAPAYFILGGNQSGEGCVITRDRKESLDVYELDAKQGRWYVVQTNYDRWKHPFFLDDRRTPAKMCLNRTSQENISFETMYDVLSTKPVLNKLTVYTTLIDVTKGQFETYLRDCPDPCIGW
# Assay: Acid ceramidase assay (AC in vitro IC50)
# Format: biochemical
# Conditions: Acid ceramidase assay data of example compounds
row,IC50,SMILES
1,< 300 nM,"C[C@H](Oc1ccc(-c2cn(C(=O)NCCCOc3ccccc3)cn2)cc1)c1ccc(S(C)(=O)=O)cc1 (single isomer, unassigned) [AC2020601-0348]"
2,< 300 nM,"C[C@@H](Oc1ccc(-c2cn(C(=O)NCCCOc3ccccc3)cn2)cc1)c1ccc(S(C)(=O)=O)cc1 (single isomer, unassigned) [AC2020601-0349]"
3,< 300 nM,"CS(=O)(=O)c1ccc(COc2ccc(-c3cn(C(=O)NC[C@@H]4CCN(c5ccccc5)C4)cn3)cc2)cc1 (single isomer, unassigned) [AC2020601-0384a]"
4,< 300 nM,"CS(=O)(=O)c1ccc(COc2ccc(-c3cn(C(=O)NC[C@H]4CCN(c5ccccc5)C4)cn3)cc2)cc1 (single isomer, unassigned) [AC2020601-0384b]"
5,< 300 nM,"CCCCCCNC(=O)n1cnc(-c2ccccc2OCc2ccccc2)c1 [AC2020601-0199, 4-(2-(benzyloxy)phenyl)-N-hexyl-1H-imidazole-1-carboxamide]"
6,< 300 nM,"O=C(NCC1CC1)n1cnc(-c2ccc(OCc3ccc(F)cc3)cc2)c1 [AC2020601-0206, N-(cyclopropylmethyl)-4-(4-(4-fluorobenzyloxy)Vphenyl)-1H-imid azole-1-carboxamide]"
7,< 300 nM,"CS(=O)(=O)c1ccc(COc2ccc(-c3cn(C(=O)NCCCCc4ccccc4)cn3)cc2)cc1 [AC2020601-0243, 4-(4-((4-(methylsulfonyl)benzyl)oxy)phenyl)-N-(4-phenylbutyl)-1H-imidazole-1-carboxamide]"
8,< 300 nM,"O=C(NCCCCc1ccccc1)n1cnc(-c2ccc(OCc3cccc(N4CCOCC4)c3)cc2)c1 [AC2020601-0245, 4-(4-((3-morpholinobenzyl)oxy)phenyl)-N-(4-phenylbutyl)-1H-imidazole-1-carboxamide]"
9,< 300 nM,"NC(=O)c1cccc(COc2ccc(-c3cn(C(=O)NCCCCc4ccccc4)cn3)cc2)c1 [AC2020601-0246, 4-(4-((3-carbamoylbenzyl)oxy)phenyl)-N-(4-phenylbutyl)-1H-imidazole-1-carboxamide]"
10,< 300 nM,"N#Cc1cccc(COc2ccc(-c3cn(C(=O)NCCCCc4ccccc4)cn3)cc2)c1 [AC2020601-0275, 4-(4-((3-cyanobenzyl)oxy)phenyl)-N-(4-phenylbutyl)-1H-imidazole-1-carboxamide]"
11,< 300 nM,"O=C(NCCCCc1ccccc1)n1cnc(-c2ccc(OCc3cccnc3)cc2)c1 [AC2020601-0276, N-(4-phenylbutyl)-4-(4-(pyridin-3-ylmethoxy)phenyl)-1H-imidazole-1-carboxamide]"
12,> 3000 nM,"CN(CCCCc1ccccc1)C(=O)n1cnc(-c2ccc(OCc3ccccc3)cc2)c1 [AC2020601-0278, 4-(4-(benzyloxy)phenyl)-N-methyl-N-(4-phenylbutyl)-1H-imidazole-1-carboxamide]"
13,< 300 nM,"NS(=O)(=O)c1ccc(COc2ccc(-c3cn(C(=O)NCCCCc4ccccc4)cn3)cc2)cc1 [AC2020601-0284, N-(4-phenylbutyl)-4-(4-((4-sulfamoylbenzyl)oxy)phenyl)-1H-imidazole-1-carboxamide]"
14,< 300 nM,"CS(=O)(=O)c1ccc(COc2ccc(-c3cn(C(=O)NCCCOc4ccccc4)cn3)cc2)cc1 [AC2020601-0294, 4-(4-((4-(methylsulfonyl)benzyl)oxy)phenyl)-N-(3-phenoxypropyl)-1H-imidazole-1-carboxamide]"
15,< 300 nM,"CS(=O)(=O)c1ccc(COc2ccc(-c3cn(C(=O)NCC4CC4)cn3)cc2)cc1 [AC2020601-0295, N-(cyclopropylmethyl)-4-(4-((4-(methylsulfonyl)benzyl)oxy)phenyl)-1H-imidazole-1-carboxamide]"
16,< 300 nM,"CCCCCCNC(=O)n1cnc(-c2ccc(OCc3ccc(S(C)(=O)=O)cc3)cc2)c1 [AC2020601-0296, N-hexyl-4-(4-((4-(methylsulfonyl)benzyl)oxy)phenyl)-1H-imidazole-1-carboxamide]"
17,301 to 3000 nM,"CS(=O)(=O)c1ccc(CNC(=O)n2cnc(-c3ccc(OCc4ccc(S(C)(=O)=O)cc4)cc3)c2)cc1 [AC2020601-0303, N-(4-(methylsulfonyl)benzyl)-4-(4-((4-(methylsulfonyl)benzyl)oxy)phenyl)-1H-imidazole-1-carboxamide]"
18,< 300 nM,"CS(=O)(=O)Nc1ccc(COc2ccc(-c3cn(C(=O)NCCCCc4ccccc4)cn3)cc2)cc1 [AC2020601-0306, 4-(4-((4-(methylsulfonamido)benzyl)oxy)phenyl)-N-(4-phenylbutyl)-1H-imidazole-1-carboxamide]"

row,IC50,SMILES
1,< 300 nM,"CS(=O)(=O)c1ccc(COc2ccc(-c3cn(C(=O)NCC4CN(c5ccccc5)C4)cn3)cc2)cc1 [AC2020601-0321, 4-(4-((4-(methylsulfonyl)benzyl)oxy)phenyl)-N-((1-phenylazetidin-3-yl)methyl)-1H-imidazole-1-carboxamide]"
2,< 300 nM,"O=C(NCCCCc1ccccc1)n1cnc(-c2ccc(OCc3ccncc3)cc2)c1 [AC2020601-0323, N-(4-phenylbutyl)-4-(4-(pyridin-4-ylmethoxy)phenyl)-1H-imidazole-1-carboxamide]"
3,< 300 nM,NS(=O)(=O)c1ccc(COc2ccc(-c3cn(C(=O)NCCCOc4ccccc4)cn3)cc2)cc1 [AC2020601-0324]
4,< 300 nM,"CS(=O)(=O)Nc1ccc(COc2ccc(-c3cn(C(=O)NCCCOc4ccccc4)cn3)cc2)cc1 [AC2020601-0327, 4-(4-((4-(methylsulfonamido)benzyl)oxy)phenyl)-N-(3-phenoxypropyl)-1H-imidazole-1-carboxamide]"
5,< 300 nM,"O=C(Nc1ccc(COc2ccc(-c3cn(C(=O)NCCCOc4ccccc4)cn3)cc2)cc1)C1CC1 [AC2020601-0328, 4-(4-((4-(cyclopropanecarboxamido)benzyl)oxy)phenyl)-N-(3-phenoxypropyl)-1H-imidazole-1-carboxamide]"
6,< 300 nM,"CNS(=O)(=O)c1ccc(COc2ccc(-c3cn(C(=O)NCCCOc4ccccc4)cn3)cc2)cc1 [AC2020601-0339, 4-(4-((4-(N-methylsulfamoyl)benzyl)oxy)phenyl)-N-(3-phenoxypropyl)-1H-imidazole-1-carboxamide]"
7,< 300 nM,"CN1CCN(S(=O)(=O)c2ccc(COc3ccc(-c4cn(C(=O)NCCCOc5ccccc5)cn4)cc3)cc2)CC1 [AC2020601-0342, 4-(4-((4-((4-methylpiperazin-1-yl)sulfonyl)benzyl)oxy)phenyl)-N-(3-phenoxypropyl)-1H-imidazole-1-carboxamide]"
8,< 300 nM,"O=C(NCCCOc1ccccc1)n1cnc(-c2ccc(OCc3ccc(S(=O)(=O)N4CCOCC4)cc3)cc2)c1 [AC2020601-0347, 4-(4-((4-(morpholinosulfonyl)benzyl)oxy)phenyl)-N-(3-phenoxypropyl)-1H-imidazole-1-carboxamide]"
9,< 300 nM,"O=C(NCCCOc1ccccc1)n1cnc(-c2ccc(OCc3ccc(NS(=O)(=O)C(F)F)cc3)cc2)c1 [AC2020601-0363, 4-(4-((4-(difluoromethylsulfonamido)benzyl)oxy)phenyl)-N-(3-phenoxypropyl)-1H-imidazole-1-carboxamide]"
10,< 300 nM,"CS(=O)(=O)c1ccc(COc2ccc(-c3cn(C(=O)NCCCOc4ccc(C#N)cc4)cn3)cc2)cc1 [AC2020601-0373, N-(3-(4-cyanophenoxy)propyl)-4-(4-(4-(methylsulfonyl)benzyloxy)phenyl)-1H-imidazole-1-carboxamide]"
11,< 300 nM,CS(=O)(=O)c1ccc(COc2ccc(-c3cn(C(=O)NCCCOc4ccc(S(F)(F)(F)(F)F)cc4)cn3)cc2)cc1 [AC2020601-0374]
12,> 3000 nM,"CS(=O)(=O)c1ccc(COc2ccc(-c3cn(C(=O)NCC4CN(Cc5ccccc5)C4)cn3)cc2)cc1 [AC2020601-0377, N-((1-benzylazetidin-3-yl)methyl)-4-(4-((4-(methylsulfonyl)benzyl)oxy)phenyl)-1H-imidazole-1-carboxamide]"
13,> 3000 nM,"CC(C)N1CC(CNC(=O)n2cnc(-c3ccc(OCc4ccc(S(C)(=O)=O)cc4)cc3)c2)C1 [AC2020601-0379, N -((1-isopropylazetidin-3-yl)methyl)-4-(4-((4-(methylsulfonyl)benzyl)oxy)phenyl)-1H-imidazole-1-carboxamide]"
14,> 3000 nM,"CS(=O)(=O)Nc1ccc(COc2ccc(-c3cn(C(=O)NCC4CN(c5ccccc5)C4)cn3)cc2)cc1 [AC2020601-0380, 4-(4-((4-(methylsulfonamido)benzyl)oxy)phenyl)-N-((1-phenylazetidin-3-yl)methyl)-1H-imidazole-1-carboxamide]"
15,< 300 nM,"O=C(NCC1CN(c2ccccc2)C1)n1cnc(-c2ccc(OCc3cccc(N4CCOCC4)c3)cc2)c1 [AC2020601-0382, 4-(4-(3-morpholinobenzyloxy)phenyl)-N-((1-phenylazetidin-3-yl)methyl)-1H-imidazole-1-carboxamide]"
16,< 300 nM,"O=C(Nc1ccc(COc2ccc(-c3cn(C(=O)NCC4CN(c5ccccc5)C4)cn3)cc2)cc1)C1COC1 [AC2020601-0401, 4-(4-((4-(oxetane-3-carboxamido)benzyl)oxy)phenyl)-N-((1-phenylazetidin-3-yl)methyl)-1H-imidazole-1-carboxamide]"
17,> 3000 nM,"CS(=O)(=O)c1ccc(COc2ccc(-c3cn(C(=O)NCCN4Cc5ccccc5C4)cn3)cc2)cc1 [AC2020601-0402, N-(2-(isoindolin-2-yl)ethyl)-4-(4-(4-(methylsulfonyl)benzyloxy)phenyl)-1H-imidazole-1-carboxamide]"
18,< 300 nM,"CS(=O)(=O)c1ccc(COc2ccc(-c3cn(C(=O)NCC4CN(c5cccc(Cl)c5)C4)cn3)cc2)cc1 [AC2020601-0407, N-((1-(3-chlorophenyl)azetidin-3-yl)methyl)-4-(4-((4-(methylsulfonyl)benzyl)oxy)phenyl)-1H-imidazole-1-carboxamide]"
